What follows are molecules tested against T1, ZAP-70 (Homo sapiens, UniProt P43403) (assay: ZAP-70 kinase assay (time-resolved fluorescence resonance energy transfer)). Conditions: 80 nM ZAP-70, 4 μM ATP, LAT-11 peptide substrate.
T1 construct: purchased Upstate Biotechnology, Lake Placid, N.Y
T1 sequence (P43403 1-619): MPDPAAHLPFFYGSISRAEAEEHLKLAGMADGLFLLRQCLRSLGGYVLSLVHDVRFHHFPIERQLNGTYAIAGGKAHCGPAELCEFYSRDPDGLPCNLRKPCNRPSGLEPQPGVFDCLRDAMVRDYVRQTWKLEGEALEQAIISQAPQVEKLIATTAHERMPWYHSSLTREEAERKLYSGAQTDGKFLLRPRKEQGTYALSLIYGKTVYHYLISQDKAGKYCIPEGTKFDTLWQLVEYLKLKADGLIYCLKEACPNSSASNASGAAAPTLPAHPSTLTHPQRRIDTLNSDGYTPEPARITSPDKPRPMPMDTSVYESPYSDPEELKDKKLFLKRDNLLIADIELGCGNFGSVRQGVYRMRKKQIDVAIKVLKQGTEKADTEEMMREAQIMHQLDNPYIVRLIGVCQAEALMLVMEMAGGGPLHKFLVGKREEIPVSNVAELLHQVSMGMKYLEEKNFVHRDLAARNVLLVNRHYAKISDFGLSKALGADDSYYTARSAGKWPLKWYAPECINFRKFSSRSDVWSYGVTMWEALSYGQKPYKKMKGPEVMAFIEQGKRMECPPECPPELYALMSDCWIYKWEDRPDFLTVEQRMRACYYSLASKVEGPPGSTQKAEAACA
Type: biochemical
Experimental: 1. ZAP-70 Cell-Free Kinase Assays
ZAP-70 and Lck (lymphoid T-cell protein tyrosine kinase) are commercially available from Upstate Biotechnology, Lake Placid, N.Y.
ZAP-70 Kinase assay: The activities of the compounds of invention are determined in a homogenous ZAP-70 kinase assay based on time-resolved fluorescence resonance energy transfer. Briefly, 80 nM ZAP-70 are incubated with 80 nM Lck and 4 μM ATP in ZAP-70 kinase buffer (20 mM Tris, pH 7.5, 10 μM Na3VO4, 1 mM DTT, 1 mM MnCl2, 0.01% bovine serum albumin, 0.05% Tween 20) for 1 hour at room temperature in a siliconized polypropylene tube. Then, the selective Lck inhibitor PP2 (4-amino-5-(4-chloro-phenyl)-7-(t-butyl)pyrazolo[3,4-d]pyrimidine; Alexis Biochemicals) is added (final concentration 1.2 μM) and incubated for further 10 min. Ten μl of this solution is mixed with the 10 μl biotinylated peptide LAT-11 (linker for activation of T cell prepared as disclosed in Example 1A of WO 02/12275, the contents of which, particularly with reference to Example 1A, is incorporated herein by reference; 1 μM) as substrate and 20 μl of serial dilutions of inhibitors and incubated for 4 hours at room temperature. The kinase reaction is terminated with 10 μl of a 10 mM EDTA solution in detection buffer (20 mM Tris, pH 7.5, 0.01% bovine serum albumin, 0.05% Tween 20). The detection phase is performed by addition of 50 μl europium (Eu)-labelled anti-phosphotyrosine antibody (e.g. Eu-PT66; final concentration 0.125 nM; Advant/Wallac) and 50 μl streptavidin-allophycocyanine (SA-APC; final concentration 40 nM) in detection buffer. After 1 hour incubation at room temperature fluorescence is measured, e.g., on the Victor2 Multilabel Counter (VVallac) at 665 nm. Background values (low control) are obtained in the absence of test samples and ATP and are subtracted from all values. Signals obtained in the absence of test samples are taken as 100% (high control). The inhibition obtained in the presence of test compounds is calculated as percent inhibition of the high control. The concentration of test compounds resulting in 50% inhibition (IC50) is determined from the dose-response curves.

With `CN1CCN(CCOc2cccc(Nc3nccc(Nc4ccc5c(c4S(N)(=O)=O)OCCO5)n3)c2)CC1` [Example 11] as the molecule, how does the IC50 read?
Its IC50 is 0.016 µM.

With `COCCNc1cc(Nc2nccc(Nc3ccc4c(c3S(N)(=O)=O)OCCO4)n2)ccc1C` [Example 57] as the molecule, how does the IC50 read?
Its IC50 is 0.013 µM.

For `COc1cccc(Nc2ccnc(Nc3ccc4c(c3)NCC4)n2)c1S(N)(=O)=O` [Example 141, 2-[2-(2,3-Dihydro-1H-indol-6-ylamino)-pyrimidin-4-ylamino]-6-methoxy-benzenesulfonamide], which IC50 is on record?
The IC50 was 0.183 µM.

With `NS(=O)(=O)c1c(Nc2ccnc(Nc3ccc4c(c3)NCC4)n2)ccc2c1OCCO2` [Example 144, 6-[2-(2,3-Dihydro-1H-indol-6-ylamino)-pyrimidin-4-ylamino]-2,3-dihydro-benzo[1,4]dioxine-5-sulfonic acid amide] as the molecule, how does the IC50 read?
The IC50 was 0.021 µM.

For `CNc1cc(Nc2nccc(Nc3cccc(OC)c3S(N)(=O)=O)n2)ccc1C` [Example 139, 2-Methoxy-6-[2-(4-methyl-3-methyl-amino-phenylamino)-pyrimidin-4-ylamino]-benzenesulfonamide], which IC50 is on record?
The IC50 was 0.037 µM.

Which IC50 does the source give for `CNc1cc(Nc2nccc(Nc3ccc4c(c3S(N)(=O)=O)OCCO4)n2)ccc1C` [Example 140, 6-[2-(4-Methyl-3-methylamino-phenylamino)-pyrimidin-4-ylamino]-2,3-dihydro-benzo[1,4]dioxine-5-sulfonic acid amide] here?
Its IC50 is 0.01 µM.

From patent publication US8283356B2, “2,4- Di(hetero)-arylamino-pyrimidine derivatives as ZAP-70 and/or SYK inhibitors” (Novartis AG, priority 2003, dated 2012)
